In patent US6645959B1, “Method for treating postoperative ileus” (Warner-Lambert Company, priority 2000, dated 2003):
Where a name gives a salt, the structure may show the parent alone.

Key:
[1] = system: AVP-induced dermal vasoconstriction; experiment: AVP-induced dermal vasoconstriction in Phase 1 subjects; type: in vivo, human; conditions: subjects at 50 mg IV
rats [2] = experiment: Reproductive performance and fertility studies in rats; type: in vivo
[3] = system: AVP-induced pressor response (V1A antagonism); experiment: Antagonism of AVP-induced pressor response in dogs (IV); type: in vivo
[4] = system: dogs with heart failure induced by rapid right ventricular pacing; experiment: Heart failure induced by rapid right ventricular pacing in dogs; type: in vivo; conditions: IV 0.1 mg/kg
[5] = system: urinary output (V2 antagonism); experiment: Urinary output and osmolality in conscious dogs (V2 antagonism); type: in vivo
bone marrow in dogs = experiment: 2- and 13-week oral toxicity studies in dogs; type: in vivo
[6] = Oral pharmacokinetics in the dog; type: in vivo
Text: (§1) There is a marked food effect with absorption reduced by >50% in dogs after a meal.

[7] = Pharmacokinetics in healthy subjects (Phase 1)
rats [8] = experiment: Teratogenicity in rats; type: in vivo
rats [9] = conditions: rat, in vivo, 2.5 mg/kg
female rats = conditions: 13-week oral study, all doses
healthy subjects = experiment: Safety in Phase 1 subjects; type: in vivo, human
Text: These observations were considered related to antagonism of V2 receptors and not a safety concern. Vital signs (blood pressure and heart rate) were unaffected by YM087.

bacteria = experiment: Mutagenicity in bacteria; type: cell-based
[10] = system: AVP-induced platelet aggregation (V1A antagonist activity); experiment: AVP-induced platelet aggregation in Phase 1 subjects; type: in vivo, human; conditions: subjects at 20 mg/day orally or 2.5 mg IV
bone marrow of rats = experiment: Clastogenicity in bone marrow of rats; type: in vivo
[11] = Oral pharmacokinetics in the rat; type: in vivo
Text: as §1

dogs = conditions: dog, in vivo, 2 mg/kg
human lymphocytes = experiment: Clastogenicity in human lymphocytes in vitro; type: cell-based
[12] = system: AVP-induced pressor response (V1A antagonism); experiment: Antagonism of AVP-induced pressor response in rats (oral); type: in vivo; conditions: given orally to rats
rabbits = experiment: Teratogenicity in rabbits; type: in vivo
[13] = system: aquaretic action (V2 receptor antagonism); experiment: Aquaretic action in normal subjects (V2 receptor antagonism); type: in vivo, human
[14] = oral 20 mg, single dose combination

With `Cc1nc2c([nH]1)-c1ccccc1N(C(=O)c1ccc(NC(=O)c3ccccc3-c3ccccc3)cc1)CC2` [YM087, N-[4-(2-methyl-4,5,6-tetrahydromidazo [4,5-d][1]benzazepin-6-ylcarbonyl)phenyl]biphenyl-2-carboxamide hydrochloride] the AVP-induced dermal vasoconstriction [1] was “Total inhibition”, the female fertility findings (rats [2]; females given 100 mg/kg orally for 2 weeks prior to mating with untreated males) was “reduced fertility index, increased implantation loss, and decreased live fetuses” and the “reproductive performance of male rats” value (rats [2]; male rats) was “did not affect”. The “ID50 (dose that reduced the AVP response by 50%)” value [3] was 0.026 mg/kg, the cardiac function [4] was “significantly improved the depressed cardiac function” and the water diuresis [4] was “produced a water diuresis”. For the same compound, the urinary output ([5]; conscious dogs, oral 0.03 to 0.3 mg/kg, dose-related) was “increased urinary output”, the urinary osmolality ([5]; conscious dogs, oral 0.03 to 0.3 mg/kg, reduced from 1500) was less than 100 mOsm/kg H2O and the “effect on urinary sodium (Na) or potassium (K) excretion” value ([5]; unlike furosemide) was “little or no effect”. For the same compound, the peripheral blood counts (bone marrow in dogs; affected dogs, 13-week oral study) was “Decreased peripheral erythrocyte, leukocyte, and/or platelet counts”, the “reversibility of bone marrow and peripheral blood changes” value (bone marrow in dogs; dogs) was “reversible” and the half-life ([6]; in vivo, dogs, read-out: elimination half-life (converted)) was 2 h. The “time to peak concentrations” value ([6]; oral) was 1 h, the half-life ([7]; human, plasma) was 4 to 5 h and the bioavailability ([7]; human, plasma, oral) was 43 to 59%. The Tmax ([7]; human, plasma, po) was roughly 1 h, the bioavailability ([7]; human, plasma, po, 60 mg) was 44% and the “effect of 0.5 mg IV digoxin on pharmacokinetics” value [7, 14] was “not affected”. For the same compound, the “effect of 25 mg oral captopril on pharmacokinetics” value [7, 14] was “not affected”, the “plasma levels after the second dose” value ([7]; repeated BID oral doses, 60 mg) was “unexpectedly high plasma levels” and the teratogenicity (rats [8]) was “not teratogenic”. The “toxicity in 4-week IV study” value (rats [9]) was “No toxicity was observed”, the uterine weights (female rats) was “decreased at all doses” and the overall safety (healthy subjects; approximately 250 subjects treated) was “no major safety concerns were identified”. For the same compound, the “urinary and plasma osmolarity at higher doses” value (healthy subjects; higher doses, related to V2 antagonism) was “urinary osmolarity decreased and plasma osmolarity increased”, the “biochemical or hematological laboratory parameters” value (healthy subjects; human, in vivo) was “No drug-related trend was observed” and the other adverse events (healthy subjects; human, in vivo) was “flushes, a sensation of cold extremities, abdominal complaints, abnormal stools, syncope, dizziness, palpitations, and postural hypotension”. The “vital signs (blood pressure and heart rate)” value (healthy subjects; human, in vivo) was “unaffected”, the “serious event in patient with severe congestive heart failure” value (healthy subjects; one patient, 80 mg/day for 4 days) was “generalized tonic clonic seizure” and the “number of subjects with minor reversible decreases in white blood cell count” value (healthy subjects; one subject on placebo also affected) was “Three”. For the same compound, the “most frequent adverse events” value (healthy subjects; regardless of treatment association) was “mild or moderate thirst and mild headache”, the mutagenicity (bacteria) was “not mutagenic” and the AVP-induced platelet aggregation [10] was “Inhibition of AVP-induced platelet aggregation”. The clastogenicity (bone marrow of rats) was “not clastogenic”, the half-life ([11]; in vivo, rats, read-out: elimination half-life (converted)) was 1 h and the “time to peak concentrations” value ([11]; oral) was 0.5 h. For the same compound, the “toxicity in 4-week IV study” value (dogs) was “No toxicity was observed”, the clastogenicity (human lymphocytes) was “not clastogenic” and the “ID50 (dose that reduced the AVP response by 50%)” value [12] was 0.32 mg/kg. For the same compound, the teratogenicity (rabbits) was “not teratogenic”, the “tolerability of aquaretic effects” value ([13]; 120 mg QD or 60 mg BID orally or 50 mg IV, normal subjects) was “too uncomfortable in normal subjects to be tolerable” and the “duration of increased urine production rate postdosing” value ([13]; IV 50 mg/day) was no more than 6 h. For the same compound, the “duration of increased urine production rate postdosing” value ([13]; IV doses up to 250 μg/kg) was “up to 3 hours”, the “dose at which aquaretic action with decrease in urine osmolarity starts” value ([13]; IV, normal subjects) was 0.05 mg/kg and the “dose at which aquaretic action with decrease in urine osmolarity starts” value ([13]; oral, normal subjects) was 15 mg.
